Experimental findings from patent US20220395522A1, “Methods of Use of Glucosamine for Increasing Nitrogen Retention” (TSI Bioproducts (Xuzhou) Co., Ltd., priority 2021, published 2022) are described below.

Assay [1] deals with fecal microbiota. As to the kind of experiment: Fecal microbiota analysis (16S rRNA), alpha and beta diversity. The assay is classed as in vivo, human. The method, then: To determine significant differences between bacterial alpha diversity metrics (the measure of microbiome diversity within a single sample), a paired t-test was used between alpha diversity values of different sample groups (p<0.05). Significant differences in beta diversity (the measure of similarity or dissimilarity of multiple samples) between groups was determined using the qiime diversity beta-group-significance command in QIIME2 as well, which performs pairwise Permutational Multivariate Analysis of Variance (PERMANOVA) tests on beta diversity distance matrices (p<0.05). Differential abundance of taxa between sample groups were evaluated using Multivariate Analysis by Linear Models (MaAsLin) in R version 4.0.2 using the Maaslin2 command in the Maaslin2 R library on rarified taxonomy data generated by QIIME2 (p<0.05). Additional evaluation of differential abundance of taxa was performed using Analysis of Composition of Microbiomes (ANCOM) using the qiime composition ancom command after collapsing the feature table to the family level (level 5) using the qiime taxa collapse command on QIIME2. Data visualization was performed using the ggplot2 package, with data frame manipulation commands from the dplyr package, within the tidyverse collection of R packages.
Stool specimens were collected at four time points throughout the entire study protocol. The first two samples were collected before and after the first supplementation period while the final two samples were collected before and after the second supplementation period. All stool specimens were collected no more than 24-hours prior to that study participant being scheduled to complete their laboratory visit. All samples were immediately frozen after sample collection by the study participants. […]
A fecal microbiota analysis was further conducted. […] The Qubit Fluorometer (Thermo Fisher Scientific, San Francisco, Calif.) was used to quantify PCR product concentrations prior to combining the PCR products in equal quantities for purification with the Wizard SV Gel and PCR Cleanup kit (Promega, Madison, Wis.). […]

Assay [2] in a line: Bristol Stool Chart. The assay is classed as in vivo, human. The note with it: for Bristol Stool: GLU condition, mean ± SD. The source says:
The remainder of the study consisted of two identical patterns of testing with the exception of what supplementation protocol was followed. FIG. 1 provides a flowchart of the experimental design. Prior to each visit, food and physical activity logs were completed encompassing four days prior to the scheduled laboratory visit. The four days consisted of two weekend days and two weekdays. Each participant reported to the laboratory for a baseline measurement of height, weight, heart rate, and blood pressure. During this visit, participants completed the Bristol Stool Chart and Gastrointestinal Symptom Rating Scale (GSRS) to assess bowel habits and potential gastrointestinal symptoms. Participants were given instructions on how to collect a stool sample and were instructed to do so within 24 hours of each planned study visit. At the completion of this study visit, participants were provided with their first assigned supplement (either PLA [placebo] or GLU [glucosamine]) and instructed to begin supplementation 21 days prior to their second visit. Participants were instructed to collect their second stool sample on the day of their final supplementation dose. On the morning of their second study visit, participants reported to the laboratory after following identical pre-study instructions as previous visits (i.e., fasting, abstention from caffeine and exercise). Study participants again completed assessments for height, weight, heart rate, blood pressure, and questionnaires regarding their bowel habits and gastrointestinal symptoms while also providing their second stool sample and turning in completed food and activity logs. A washout period lasting a minimum of 14 days and a maximum of 21 days separated each phase of the crossover as shown in FIG. 1. […] In a double-blind manner, a glucosamine supplement (GLU) or a maltodextrin placebo (PLA) was distributed in identical opaque capsules to all participants. On a daily basis, participants were instructed to ingest three capsules, each containing 1,000 mg of glucosamine hydrochloride (GlucosaGreen®, TSI Group Ltd. MT, USA) or a placebo (maltodextrin) identical in appearance for a total of 21 days. Each visit at the beginning of the supplementation regimen (Visits 1 and 4, respectively; See FIG. 1) occurred on or before the first day of supplementation while the final day of supplementation occurred the day before each participant's follow-up visit for that study period (Visits 2 and 4, respectively). Participants were instructed to ingest the supplement 15-30 minutes before breakfast with eight fluid ounces of cold water. In the case of a missed dose, participants were instructed to consume the missed dose as soon as possible with a meal. […]

Regarding `Cl.N[C@H]1C(O)O[C@H](CO)[C@@H](O)[C@@H]1O` (stereo partly shown) [GLU, glucosamine hydrochloride], the “Other alpha diversity measures (Observed OTUs or Shannon Evenness)” value in assay [1] (Post vs Pre, paired t-test p>0.05) was “not significantly altered”. In addition, in assay [1] (compared to baseline, PERMANOVA p>0.05), the “Changes in beta-diversity (unweighted Unifrac distances)” value was “not significantly different”. In assay [1] (following GLU consumption compared to baseline, paired t-test p=4.59E-03), the “Alpha diversity of fecal bacterial communities, Faith's Phylogenetic Diversity (PD)” value is given as “significantly decreased”. Moreover, the “Bristol Stool” value in assay [2] (Post 21 days, 3 x 1,000 mg/day oral) came out at 3.6 ± 0.8; in assay [2] (Pre (baseline)) it was 3.3 ± 0.8. In assay [2] (PLA vs. GLU, between-group), the “Bristol Stool, %” value is recorded as −19.9%. The “Changes in Bristol Stool chart ratings within group” value in assay [2] (Post vs Pre, p=0.10) is recorded as “no significant changes”.
